“Also recorded” adds a separate entry of the source. Where two headings read alike, the source gives them in different places. Marks after values point to notes of the source that are not given here.
What was measured:
Male Swiss Webster mice [1] = assay: mouse tetrad assay: overall cannabimimetic action; conditions: ip, result in words
Male Swiss Webster mice [2] = assay: mouse tetrad assay: locomotor activity; conditions: for hypolocomotive activity: ip, across doses, result in words; for locomotor activity: total photobeam interruptions, last 10 min of 30 min, mean ± SEM
CB1 receptor = CB1 receptor (Homo sapiens, UniProt P21554); assay: functional assays at CB1 receptor; format: biochemical; conditions: result in words
[3] = biological target: full-length human cannabinoid-2 receptor (Homo sapiens, UniProt P34972); assay: CB2 receptor radioligand binding assay
CB2 receptor = CB2 receptor (Homo sapiens, UniProt P34972); assay: functional assays at CB2 receptor; format: biochemical; conditions: result in words
[4] = biological target: full-length human cannabinoid-1 receptor (Homo sapiens, UniProt P21554); conditions: radioligand binding
Male Swiss Webster mice [5] = assay: mouse tetrad assay: rectal temperature; conditions: difference between basal and postinjection temperatures, mean ± SEM
Male Swiss Webster mice [6] = assay: mouse tetrad assay: tail-flick latency; conditions: cutoff 15 s, mean ± SEM
Male Swiss Webster mice [7] = assay: mouse tetrad assay: hot-plate latency; conditions: cutoff 45 s, mean ± SEM
Male Swiss Webster mice [8] = assay: mouse tetrad assay: catalepsy; conditions: latency to drop, cutoff 180 s, mean ± SEM

CB1 receptor, sequence (P21554 whole entry): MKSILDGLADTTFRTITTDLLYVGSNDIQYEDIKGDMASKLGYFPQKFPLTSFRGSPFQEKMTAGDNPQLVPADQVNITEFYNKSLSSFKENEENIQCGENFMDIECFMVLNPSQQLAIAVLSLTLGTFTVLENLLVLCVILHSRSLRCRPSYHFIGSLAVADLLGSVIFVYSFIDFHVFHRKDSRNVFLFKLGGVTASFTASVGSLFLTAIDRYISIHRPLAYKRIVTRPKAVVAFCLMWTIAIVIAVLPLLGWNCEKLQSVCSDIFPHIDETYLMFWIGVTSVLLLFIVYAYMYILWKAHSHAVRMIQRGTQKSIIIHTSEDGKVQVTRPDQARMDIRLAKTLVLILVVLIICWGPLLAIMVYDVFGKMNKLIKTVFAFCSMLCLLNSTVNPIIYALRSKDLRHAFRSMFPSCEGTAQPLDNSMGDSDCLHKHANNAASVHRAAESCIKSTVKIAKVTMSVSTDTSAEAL
full-length human cannabinoid-1 receptor, sequence (P21554 whole entry): as above
CB2 receptor, sequence (P34972 whole entry): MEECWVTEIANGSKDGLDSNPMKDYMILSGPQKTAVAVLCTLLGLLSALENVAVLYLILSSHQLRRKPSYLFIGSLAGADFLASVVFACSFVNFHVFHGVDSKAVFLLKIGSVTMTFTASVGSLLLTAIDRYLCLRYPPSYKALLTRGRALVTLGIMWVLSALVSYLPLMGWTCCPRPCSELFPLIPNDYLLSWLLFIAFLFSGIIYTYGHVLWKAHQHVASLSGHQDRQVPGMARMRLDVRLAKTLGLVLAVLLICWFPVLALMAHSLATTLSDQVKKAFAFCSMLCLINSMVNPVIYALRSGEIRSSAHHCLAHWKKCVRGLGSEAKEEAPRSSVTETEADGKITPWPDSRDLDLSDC
full-length human cannabinoid-2 receptor, sequence (P34972 whole entry): as above

CCCCCc1cc(O)c2c(c1)OC(C)(C)[C@@H]1C[C@H](O)C(C)=C[C@@H]21 [Compound 1, 8α-hydroxy-Δ^9-tetrahydrocannabinol]
cannabimimetic activity in the mouse tetrad assay (Male Swiss Webster mice [1]; dose of 20 mg/kg): did not exhibit typical cannabimimetic activity

CCCCCc1cc(O)c2c(c1)OC(C)(C)[C@@H]1C[C@@H](O)C(C)=C[C@@H]21 [Compound 2, 8β-hydroxy-Δ^9-tetrahydrocannabinol]
hypolocomotive activity (Male Swiss Webster mice [2]): dose-dependent hypolocomotive effect only | hypolocomotive activity (Male Swiss Webster mice [2]; listed as compound 2): significant dose-dependent hypolocomotive activity | cannabimimetic-like action in the mouse tetrad assay (Male Swiss Webster mice [1]; at the doses tested): lacked any cannabimimietic activity | cannabimimetic-like action in the mouse tetrad assay (Male Swiss Webster mice [1]; doses up to 20 mg/kg): lacked typical cannabimimetic-like action

CCCCCc1cc(O)c2c(c1)OC(C)(C)[C@@H]1CC=C(C)[C@H](O)[C@@H]21 [Compound 3, 10α-hydroxy-Δ^8-tetrahydrocannabinol]
functional activity at CB1 receptor (CB1 receptor): partial agonist | functional activity at CB1 receptor (CB1 receptor; listed as compound 3): partial CB1 agonist | binding affinity (nM) CB2 [3]: nearly as tightly as THC | functional activity at CB2 receptor (CB2 receptor): partial agonist | binding affinity (nM) CB1 [4]: nearly as tightly as THC | binding affinity (nM) CB1 ([4]; listed as compound 3): highest affinity | cannabimimetic-like action in the mouse tetrad assay (Male Swiss Webster mice [1]; at the doses tested): most potent cannabimimetic-like actions; also recorded: typical cannabimimetic actions

CCCCCc1cc(O)c2c(c1)OC(C)(C)[C@@H]1CC=C(C)[C@@H](O)[C@@H]21 [Compound 4, 10β-hydroxy-Δ^8-tetrahydrocannabinol]
effects in the mouse tetrad assay (Male Swiss Webster mice [1]; 40 mg/kg (highest tested dose), 40 mg/kg): hypothermic and antinociceptive activity | cannabimimetic-like action in the mouse tetrad assay (Male Swiss Webster mice [1]; at the doses tested): partial cannabimimetic action

CCCCCc1cc(O)c2c(c1)OC(C)(C)[C@@H]1CC[C@@]3(C)O[C@H]3[C@@H]21 [Compound 6, 9β,10β-epoxyhexahydrocannabinol]
cannabimimetic-like action in the mouse tetrad assay (Male Swiss Webster mice [1]; at the doses tested): most potent cannabimimetic-like actions

CCCCCc1cc(O)c2c(c1)OC(C)(C)[C@@H]1CC=C(C)C[C@@H]21 [Δ^8-THC, Δ^8-tetrahydrocannabinol]
decrease in rectal temperature (°C) (Male Swiss Webster mice [5]; 5 mg/kg ip): 0.12 ± 0.09 °C | decrease in rectal temperature (°C) (Male Swiss Webster mice [5]; 20 mg/kg ip): 1.96 ± 0.37 ^a °C

(−)-trans-Δ^9-tetrahydrocannabinol [Δ^9-THC]
locomotor activity (Male Swiss Webster mice [2]; 10 mg/kg ip): 190.9 ± 33.8 ^c | locomotor activity (Male Swiss Webster mice [2]; 20 mg/kg ip): 276.2 ± 52.6 ^c | locomotor activity (Male Swiss Webster mice [2]; 40 mg/kg ip): 194.0 ± 49.2 ^c | tail-flick latency (% MPE) (Male Swiss Webster mice [6]; 10 mg/kg ip): 6.52 ± 2.00 % MPE | tail-flick latency (% MPE) (Male Swiss Webster mice [6]; 20 mg/kg ip): 42.21 ± 17.04 ^b % MPE | tail-flick latency (% MPE) (Male Swiss Webster mice [6]; 40 mg/kg ip): 51.96 ± 13.22 ^c % MPE | hot-plate latency (% MPE) (Male Swiss Webster mice [7]; 10 mg/kg ip): 29.04 ± 5.37 ^c % MPE | hot-plate latency (% MPE) (Male Swiss Webster mice [7]; 20 mg/kg ip): 46.85 ± 9.08 ^c % MPE | hot-plate latency (% MPE) (Male Swiss Webster mice [7]; 40 mg/kg ip): 38.18 ± 4.05 ^c % MPE | catalepsy latency (Male Swiss Webster mice [8]; 10 mg/kg ip): 14.4 ± 4.16 s | catalepsy latency (s) (Male Swiss Webster mice [8]; 20 mg/kg ip): 47.9 ± 20.04 ^b s | catalepsy latency (s) (Male Swiss Webster mice [8]; 40 mg/kg ip): 37.7 ± 14.64 ^a s | decrease in rectal temperature (°C) (Male Swiss Webster mice [5]; 10 mg/kg ip): 2.05 ± 0.25 °C | decrease in rectal temperature (°C) (Male Swiss Webster mice [5]; 20 mg/kg ip): 4.25 ± 0.78 ^c °C | decrease in rectal temperature (°C) (Male Swiss Webster mice [5]; 40 mg/kg ip): 4.80 ± 0.28 ^c °C

From PMC4880513 (Journal of natural products, 2015)
